Reference: the NIST ThermoML archive (doi:10.1021/je700236c)
Where “and” joins values, the source holds several entries; their conditions need not be identical. Identical values can stand only once.

Settings: Gas, Buoyancy - hydrostatic balance with magnetic suspension - two sinkers

FC(F)C(F)(F)F [pentafluoroethane]
Settings | mass density
283.15 K, 207.2 kPa | 10.978 kg/m3 and 10.98 kg/m3
283.15 K, 442.7 kPa | 24.675 kg/m3 and 24.667 kg/m3
283.15 K, 617.4 kPa | 35.904 kg/m3 and 35.92 kg/m3
283.15 K, 710.7 kPa | 42.388 kg/m3
283.15 K, 710.8 kPa | 42.398 kg/m3
283.15 K, 758.3 kPa | 45.855 kg/m3 and 45.853 kg/m3
283.15 K, 811.7 kPa | 49.881 kg/m3 and 49.877 kg/m3
283.15 K, 828 kPa | 51.141 kg/m3 and 51.137 kg/m3
283.15 K, 857 kPa | 53.429 kg/m3 and 53.417 kg/m3
283.15 K, 872.2 kPa | 54.64 kg/m3
283.15 K, 872.3 kPa | 54.652 kg/m3
283.15 K, 880 kPa | 55.27 kg/m3 and 55.283 kg/m3
283.15 K, 889.1 kPa | 56.021 kg/m3
283.15 K, 889.2 kPa | 56.023 kg/m3
283.15 K, 901.7 kPa | 57.048 kg/m3 and 57.055 kg/m3
293.15 K, 205.9 kPa | 10.502 kg/m3
293.15 K, 206 kPa | 10.492 kg/m3
293.15 K, 413.1 kPa | 21.853 kg/m3
293.15 K, 413.2 kPa | 21.867 kg/m3
293.15 K, 605 kPa | 33.264 kg/m3 and 33.278 kg/m3
293.15 K, 799.7 kPa | 45.976 kg/m3
293.15 K, 799.8 kPa | 45.993 kg/m3
293.15 K, 901.5 kPa | 53.187 kg/m3 and 53.196 kg/m3
293.15 K, 1000.4 kPa | 60.669 kg/m3
293.15 K, 1000.5 kPa | 60.666 kg/m3
293.15 K, 1051.5 kPa | 64.739 kg/m3 and 64.718 kg/m3
293.15 K, 1101.2 kPa | 68.839 kg/m3
293.15 K, 1101.3 kPa | 68.86 kg/m3
293.15 K, 1133.2 kPa | 71.588 kg/m3 and 71.578 kg/m3
293.15 K, 1149.6 kPa | 73.019 kg/m3
293.15 K, 1149.7 kPa | 73.016 kg/m3
293.15 K, 1170.5 kPa | 74.869 kg/m3
293.15 K, 1170.6 kPa | 74.882 kg/m3
293.15 K, 1181.8 kPa | 75.887 kg/m3
293.15 K, 1182 kPa | 75.908 kg/m3
293.15 K, 1192.1 kPa | 76.823 kg/m3
293.15 K, 1192.2 kPa | 76.841 kg/m3
293.15 K, 1200.9 kPa | 77.624 kg/m3
293.15 K, 1201 kPa | 77.644 kg/m3
303.15 K, 225.1 kPa | 11.079 kg/m3 and 11.067 kg/m3
303.15 K, 411.9 kPa | 20.874 kg/m3 and 20.883 kg/m3
303.15 K, 602.3 kPa | 31.549 kg/m3 and 31.562 kg/m3
303.15 K, 800.1 kPa | 43.526 kg/m3 and 43.535 kg/m3
303.15 K, 999.2 kPa | 56.733 kg/m3
303.15 K, 999.3 kPa | 56.74 kg/m3
303.15 K, 1202.4 kPa | 71.762 kg/m3 and 71.771 kg/m3
303.15 K, 1299.2 kPa | 79.657 kg/m3
303.15 K, 1299.4 kPa | 79.674 kg/m3
303.15 K, 1406.6 kPa | 89.099 kg/m3
303.15 K, 1406.7 kPa | 89.124 kg/m3
303.15 K, 1450.2 kPa | 93.212 kg/m3 and 93.199 kg/m3
303.15 K, 1481.2 kPa | 96.221 kg/m3
303.15 K, 1481.3 kPa | 96.231 kg/m3
303.15 K, 1505.2 kPa | 98.609 kg/m3 and 98.623 kg/m3
303.15 K, 1520.5 kPa | 100.175 kg/m3
303.15 K, 1520.6 kPa | 100.195 kg/m3
303.15 K, 1537.3 kPa | 101.933 kg/m3
303.15 K, 1537.4 kPa | 101.917 kg/m3
303.15 K, 1565.1 kPa | 104.879 kg/m3
303.15 K, 1565.8 kPa | 104.956 kg/m3
313.15 K, 203.4 kPa | 9.623 kg/m3 and 9.618 kg/m3
313.15 K, 404.5 kPa | 19.688 kg/m3
313.15 K, 404.6 kPa | 19.685 kg/m3
313.15 K, 602.7 kPa | 30.217 kg/m3 and 30.212 kg/m3
313.15 K, 801.5 kPa | 41.504 kg/m3 and 41.496 kg/m3
313.15 K, 1002 kPa | 53.773 kg/m3 and 53.76 kg/m3
313.15 K, 1199.3 kPa | 66.926 kg/m3 and 66.915 kg/m3
313.15 K, 1398.2 kPa | 81.578 kg/m3
313.15 K, 1398.3 kPa | 81.585 kg/m3
313.15 K, 1604.4 kPa | 98.7 kg/m3
313.15 K, 1604.5 kPa | 98.71 kg/m3
313.15 K, 1705.9 kPa | 108.153 kg/m3 and 108.152 kg/m3
313.15 K, 1814.1 kPa | 119.179 kg/m3 and 119.18 kg/m3
313.15 K, 1900.7 kPa | 128.938 kg/m3 and 128.932 kg/m3
313.15 K, 1951.9 kPa | 135.196 kg/m3 and 135.193 kg/m3
313.15 K, 1976.7 kPa | 138.379 kg/m3 and 138.387 kg/m3
313.15 K, 1990.3 kPa | 140.201 kg/m3 and 140.173 kg/m3
313.15 K, 2001.8 kPa | 141.759 kg/m3
313.15 K, 2002 kPa | 141.763 kg/m3
323.15 K, 196.2 kPa | 8.951 kg/m3 and 8.953 kg/m3
323.15 K, 495.8 kPa | 23.505 kg/m3 and 23.498 kg/m3
323.15 K, 798.1 kPa | 39.455 kg/m3 and 39.458 kg/m3
323.15 K, 999.5 kPa | 50.95 kg/m3
323.15 K, 999.6 kPa | 50.954 kg/m3
323.15 K, 1199 kPa | 63.156 kg/m3 and 63.162 kg/m3
323.15 K, 1399 kPa | 76.417 kg/m3 and 76.411 kg/m3
323.15 K, 1599.7 kPa | 90.933 kg/m3 and 90.927 kg/m3
323.15 K, 1798.9 kPa | 106.993 kg/m3
323.15 K, 1799 kPa | 106.996 kg/m3
323.15 K, 2000.3 kPa | 125.421 kg/m3 and 125.435 kg/m3
323.15 K, 2100.4 kPa | 135.708 kg/m3 and 135.695 kg/m3
323.15 K, 2201.4 kPa | 147.071 kg/m3
323.15 K, 2201.5 kPa | 147.082 kg/m3
323.15 K, 2301.3 kPa | 159.592 kg/m3 and 159.61 kg/m3
323.15 K, 2350 kPa | 166.311 kg/m3
323.15 K, 2350.1 kPa | 166.298 kg/m3
323.15 K, 2400.2 kPa | 173.712 kg/m3 and 173.74 kg/m3
323.15 K, 2430 kPa | 178.427 kg/m3
323.15 K, 2430.1 kPa | 178.468 kg/m3
323.15 K, 2451.8 kPa | 182.037 kg/m3 and 182.009 kg/m3
323.15 K, 2469.3 kPa | 185.047 kg/m3 and 185.021 kg/m3

FCF [difluoromethane]
Settings | mass density
313.15 K, 201.8 kPa | 4.12 kg/m3
313.15 K, 201.9 kPa | 4.121 kg/m3
313.15 K, 490.8 kPa | 10.336 kg/m3 and 10.342 kg/m3
313.15 K, 791 kPa | 17.275 kg/m3 and 17.277 kg/m3
313.15 K, 996.6 kPa | 22.349 kg/m3 and 22.355 kg/m3
313.15 K, 1203.3 kPa | 27.759 kg/m3 and 27.77 kg/m3
313.15 K, 1396.5 kPa | 33.148 kg/m3 and 33.159 kg/m3
313.15 K, 1602.9 kPa | 39.322 kg/m3 and 39.331 kg/m3
313.15 K, 1801.8 kPa | 45.76 kg/m3
313.15 K, 1801.9 kPa | 45.748 kg/m3
313.15 K, 1998.1 kPa | 52.687 kg/m3 and 52.676 kg/m3
313.15 K, 2103.6 kPa | 56.702 kg/m3 and 56.692 kg/m3
313.15 K, 2201.5 kPa | 60.637 kg/m3 and 60.629 kg/m3
313.15 K, 2251 kPa | 62.72 kg/m3 and 62.711 kg/m3
313.15 K, 2298.1 kPa | 64.762 kg/m3 and 64.748 kg/m3
313.15 K, 2355.7 kPa | 67.348 kg/m3
313.15 K, 2355.8 kPa | 67.343 kg/m3
313.15 K, 2402.7 kPa | 69.541 kg/m3
313.15 K, 2403 kPa | 69.545 kg/m3
313.15 K, 2435 kPa | 71.084 kg/m3
313.15 K, 2435.1 kPa | 71.095 kg/m3
313.15 K, 2450.5 kPa | 71.838 kg/m3
313.15 K, 2450.6 kPa | 71.855 kg/m3
313.15 K, 2472 kPa | 72.903 kg/m3 and 72.918 kg/m3
323.15 K, 207.9 kPa | 4.101 kg/m3 and 4.103 kg/m3
323.15 K, 499.2 kPa | 10.125 kg/m3 and 10.143 kg/m3 and 10.132 kg/m3
323.15 K, 801.1 kPa | 16.793 kg/m3
323.15 K, 801.2 kPa | 16.794 kg/m3
323.15 K, 998.3 kPa | 21.387 kg/m3 and 21.393 kg/m3
323.15 K, 1095.2 kPa | 23.732 kg/m3
323.15 K, 1200.3 kPa | 26.337 kg/m3
323.15 K, 1200.4 kPa | 26.341 kg/m3
323.15 K, 1397.4 kPa | 31.424 kg/m3 and 31.416 kg/m3
323.15 K, 1590.6 kPa | 36.664 kg/m3 and 36.67 kg/m3
323.15 K, 1797.2 kPa | 42.644 kg/m3 and 42.658 kg/m3
323.15 K, 2004.9 kPa | 49.091 kg/m3 and 49.105 kg/m3
323.15 K, 2200.6 kPa | 55.637 kg/m3 and 55.653 kg/m3
323.15 K, 2402.3 kPa | 62.99 kg/m3 and 62.978 kg/m3
323.15 K, 2596.1 kPa | 70.738 kg/m3 and 70.733 kg/m3
323.15 K, 2699 kPa | 75.19 kg/m3
323.15 K, 2699.1 kPa | 75.207 kg/m3
323.15 K, 2799 kPa | 79.805 kg/m3 and 79.816 kg/m3
323.15 K, 2802.9 kPa | 80.005 kg/m3 and 80.017 kg/m3
323.15 K, 2900.6 kPa | 84.82 kg/m3 and 84.839 kg/m3
323.15 K, 2901.2 kPa | 84.882 kg/m3 and 84.872 kg/m3
323.15 K, 2947 kPa | 87.258 kg/m3 and 87.244 kg/m3
323.15 K, 2960.3 kPa | 87.971 kg/m3 and 87.99 kg/m3
323.15 K, 3002.2 kPa | 90.24 kg/m3
323.15 K, 3002.3 kPa | 90.261 kg/m3
323.15 K, 3010.2 kPa | 90.716 kg/m3 and 90.73 kg/m3
323.15 K, 3041.1 kPa | 92.478 kg/m3
323.15 K, 3041.2 kPa | 92.495 kg/m3
323.15 K, 3074.6 kPa | 94.445 kg/m3 and 94.453 kg/m3
323.15 K, 3099.5 kPa | 95.942 kg/m3 and 95.952 kg/m3
323.15 K, 3125.5 kPa | 97.558 kg/m3
323.15 K, 3125.6 kPa | 97.549 kg/m3
323.15 K, 3134.2 kPa | 98.084 kg/m3
